Assay results reported in BindingDB's records for doi:10.7270/Q28G8J4C (Broad Institute, 2009).

Target: T1, POsterior Segregation (Caenorhabditis elegans, UniProt G5EF15)
T1 sequence (G5EF15 whole entry): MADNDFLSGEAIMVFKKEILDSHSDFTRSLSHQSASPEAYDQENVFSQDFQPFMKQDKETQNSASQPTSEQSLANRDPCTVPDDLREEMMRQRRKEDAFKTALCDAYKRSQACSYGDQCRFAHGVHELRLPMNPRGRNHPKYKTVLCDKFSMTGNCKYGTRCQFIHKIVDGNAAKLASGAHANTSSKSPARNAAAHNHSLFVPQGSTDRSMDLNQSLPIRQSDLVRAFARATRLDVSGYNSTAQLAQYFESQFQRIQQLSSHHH
Test: disruptors of C. elegans POS-1 RNA interaction – biochemical, fluorescence polarization, dose response (AID 1964)

## N#CC1C(=N)Oc2cc(O)c(Cl)cc2C1c1ccccc1F (configuration not stated) [2-Amino-6-chloro-4-(2-fluoro-phenyl)-7-hydroxy-4H-chromene-3-carbonitrile]
  EC50: > 300 µM

## O=CC(C=Nc1ccccn1)c1nc2ccccc2o1 (configuration not stated) [2-Benzooxazol-2-yl-3-(pyridin-2-ylamino)-propenal]
  EC50: > 300 µM

## CN1C(=O)/C(=C/c2ccc(-c3ccccc3[N+](=O)[O-])o2)S/C1=N/c1ccc(Cl)c(C(=O)O)c1 [2-Chloro-5-[3-methyl-5-[1-[5-(2-nitro-phenyl)-furan-2-yl]-meth-(Z)-ylidene]-4-oxo-thiazolidin-(2Z)-ylideneamino]-benzoic acid]
  EC50: 36.3 µM

## O=C(CC(=O)c1ccccc1)C(=O)NNC(=O)c1ccccc1[N+](=O)[O-] [2-Nitro-benzoic acid N'-(2-hydroxy-4-oxo-4-phenyl-but-2-enoyl)-hydrazide]
  EC50: 70 µM

## CC(N=Nc1ccc([N+](=O)[O-])cc1[N+](=O)[O-])c1cc2c(ccc3ccccc32)oc1=O (configuration not stated) [2-[1-[(2,4-dinitrophenyl)hydrazinylidene]ethyl]-3-benzo[f][1]benzopyranone]
  EC50: > 300 µM

## Oc1csc(N=NCc2cccs2)n1 [2-[2-(thiophen-2-ylmethylidene)hydrazinyl]-1,3-thiazol-4-one]
  EC50: > 300 µM

## CCOc1cc(C=C2SC(Nc3ccc(CC)cc3)=NC2=O)ccc1OCC(=O)O [2-[2-ethoxy-4-[(Z)-[2-(4-ethylanilino)-4-oxo-1,3-thiazol-5-ylidene]methyl]phenoxy]acetic acid]
  EC50: 25.6 µM

## C=CCn1c(=O)c(=Cc2ccsc2)s/c1=C(\C#N)C(=O)NCCN1CCOCC1 [2-[3-allyl-4-keto-5-(3-thenylidene)thiazolidin-2-ylidene]-2-cyano-N-(2-morpholinoethyl)acetamide]
  EC50: 6.5 µM

## C=CCn1c(=O)c(=Cc2ccc(C)o2)s/c1=C(\C#N)C(=O)c1ccccc1 [2-[3-allyl-4-keto-5-[(5-methyl-2-furyl)methylene]thiazolidin-2-ylidene]-3-keto-3-phenyl-propionitrile]
  EC50: 30.7 µM

## Cc1ccc(C(=O)C2C(=O)C(=O)N(Cc3ccco3)C2c2ccc(N(C)C)cc2)o1 (configuration not stated) [2-[4-(dimethylamino)phenyl]-1-(2-furanylmethyl)-4-hydroxy-3-[(5-methyl-2-furanyl)-oxomethyl]-2H-pyrrol-5-one]
  EC50: > 300 µM

## COc1ccc(C2CC(=O)C(=CNCCCO)C(=O)C2)cc1 (configuration not stated) [2-[(3-hydroxypropylamino)methylidene]-5-(4-methoxyphenyl)cyclohexane-1,3-dione]
  EC50: 34.8 µM

## Cc1ccc(NNC2=Nc3ccccc3C2=O)cc1 [2-[(4-methylphenyl)hydrazo]-3-indolone]
  EC50: 16 µM

## CC1(C)CC(=O)C2=C(C1)OC(=N)C(C#N)[C@@]21C(=O)N(CC(N)=O)c2ccccc21 (stereo partly drawn) [2-[(4R)-2-amino-3-cyano-2',5-diketo-7,7-dimethyl-spiro[6,8-dihydrochromene-4,3'-indoline]-1'-yl]acetamide]
  EC50: > 300 µM

## N#CC1C(=N)OC2=C(C(=O)CCC2)[C@]12C(=O)N(CC(N)=O)c1ccccc12 (stereo partly drawn) [2-[(4R)-2-amino-3-cyano-2',5-diketo-spiro[7,8-dihydro-6H-chromene-4,3'-indoline]-1'-yl]acetamide]
  EC50: > 300 µM

## NC(=O)c1ccccc1N=CCC(=O)c1ccc(F)cc1 [2-[[(E)-3-(4-fluorophenyl)-3-keto-prop-1-enyl]amino]benzamide]
  EC50: > 300 µM

## COc1cccc(CN2C(=O)C3(C4=C(CCCC4=O)OC(=N)C3C#N)c3ccccc32)c1 (configuration not stated) [2-amino-1'-(3-methoxybenzyl)-2',5-dioxo-1',2',5,6,7,8-hexahydrospiro[chromene-4,3'-indole]-3-carbonitrile]
  EC50: > 300 µM

## CC1(C)CC(=O)C2=C(C1)OC(=N)C(C#N)C21C(=O)N(CN2CCOCC2)c2ccccc21 (configuration not stated) [2-amino-2',5-diketo-7,7-dimethyl-1'-(morpholinomethyl)spiro[6,8-dihydrochromene-4,3'-indoline]-3-carbonitrile]
  EC50: > 300 µM

## COc1ccc(C2C3=C(CCCC3=O)OC(=N)C2C#N)cc1OC (configuration not stated) [2-amino-4-(3,4-dimethoxyphenyl)-5-keto-4,6,7,8-tetrahydrochromene-3-carbonitrile]
  EC50: > 300 µM

## COc1ccc(C2C3=C(CC(C)(C)CC3=O)OC(=N)C2C#N)cc1OC (configuration not stated) [2-amino-4-(3,4-dimethoxyphenyl)-5-keto-7,7-dimethyl-6,8-dihydro-4H-chromene-3-carbonitrile]
  EC50: > 300 µM

## N#CC1=C2CCCCC2C(c2cccnc2)C(C#N)(C#N)C1=N (configuration not stated) [2-amino-4-(3-pyridinyl)-4a,5,6,7-tetrahydro-4H-naphthalene-1,3,3-tricarbonitrile]
  EC50: 22.2 µM

## COc1ccc(C2C3=C(CC(C)(C)CC3=O)OC(=N)C2C#N)cc1 (configuration not stated) [2-amino-4-(4-methoxyphenyl)-7,7-dimethyl-5-oxo-6,8-dihydro-4H-1-benzopyran-3-carbonitrile]
  EC50: 69.7 µM

## COc1cc(OC)c(C2C3=C(CC(C)CC3=O)OC(=N)C2C#N)cc1OC (configuration not stated) [2-amino-4-asaryl-5-keto-7-methyl-4,6,7,8-tetrahydrochromene-3-carbonitrile]
  EC50: > 300 µM

## N#CC1C(=N)OC2=C(C(=O)CCC2)C1c1ccccc1 (configuration not stated) [2-amino-5-keto-4-phenyl-4,6,7,8-tetrahydrochromene-3-carbonitrile]
  EC50: > 300 µM

## COc1ccc(C2C3=C(CC(C)(C)CC3=O)OC(=N)C2C#N)c(OC)c1OC (configuration not stated) [2-amino-5-keto-7,7-dimethyl-4-(2,3,4-trimethoxyphenyl)-6,8-dihydro-4H-chromene-3-carbonitrile]
  EC50: > 300 µM

## CC1(C)CC(=O)C2=C(C1)OC(=N)C(C#N)C2c1ccccc1 (configuration not stated) [2-amino-5-keto-7,7-dimethyl-4-phenyl-6,8-dihydro-4H-chromene-3-carbonitrile]
  EC50: > 300 µM

## COc1ccc(C2C3=C(CC(C)CC3=O)OC(=N)C2C#N)c(OC)c1OC (configuration not stated) [2-amino-5-keto-7-methyl-4-(2,3,4-trimethoxyphenyl)-4,6,7,8-tetrahydrochromene-3-carbonitrile]
  EC50: > 300 µM

## CC1CCC2=C(C#N)C(=N)C(C#N)(C#N)C(c3cccs3)C2C1 (configuration not stated) [2-amino-6-methyl-4-(2-thienyl)-4a,5,6,7-tetrahydro-4H-naphthalene-1,3,3-tricarbonitrile]
  EC50: 21.7 µM

## CCOc1cc(C2C(C(C)=O)=C(C)OC(=N)C2C#N)cc(Br)c1O (configuration not stated) [2-azanyl-4-(3-bromanyl-5-ethoxy-4-oxidanyl-phenyl)-5-ethanoyl-6-methyl-4H-pyran-3-carbonitrile]
  EC50: 12.3 µM

## N#CC1C(=N)OC2=C(C(=O)CCC2)C1c1cc2c(cc1Br)OCO2 (configuration not stated) [2-azanyl-4-(6-bromanyl-1,3-benzodioxol-5-yl)-5-oxidanylidene-4,6,7,8-tetrahydrochromene-3-carbonitrile]
  EC50: > 300 µM

## N#CC1C(=N)OC2=C(C(=O)CC(c3ccco3)C2)C1c1ccc(OCc2c(F)cccc2Cl)cc1 (configuration not stated) [2-azanyl-4-[4-[(2-chloranyl-6-fluoranyl-phenyl)methoxy]phenyl]-7-(furan-2-yl)-5-oxidanylidene-4,6,7,8-tetrahydrochromene-3-carbonitrile]
  EC50: > 300 µM

## CC(N=Nc1ccc(Cl)c(C(=O)O)c1)c1ccc[nH]1 (configuration not stated) [2-chloro-5-[2-[(1Z)-1-pyrrol-2-ylideneethyl]hydrazinyl]benzoic acid]
  EC50: > 300 µM

## O=C(O)c1cc(-c2ccc(CN=Nc3ccc([N+](=O)[O-])cn3)o2)ccc1Cl [2-chloro-5-[5-[[(5-nitropyridin-2-yl)hydrazinylidene]methyl]furan-2-yl]benzoic acid]
  EC50: 31 µM

## CC1(C)CC(=O)C2=C(C1)OC(=N)C(C#N)C2c1cccc(OC(=O)c2ccco2)c1 (configuration not stated) [2-furancarboxylic acid [3-(2-amino-3-cyano-7,7-dimethyl-5-oxo-6,8-dihydro-4H-1-benzopyran-4-yl)phenyl] ester]
  EC50: > 300 µM

## COc1[nH]c(N=Cc2ccccc2)c(C#N)c1C#N [2-methoxy-5-[(phenylmethylene)amino]-1H-pyrrole-3,4-dicarbonitrile]
  EC50: 6.46 µM

## O=C1c2cccc3cccc(c23)C(=O)C1[N+](=O)[O-] [2-nitro-3-oxidanyl-phenalen-1-one]
  EC50: 12.6 µM

## Cc1ncc(CO)c(CNNC(=O)C2=CC(=O)C(=O)C(=O)C2)c1O [3,4,5-trihydroxy-N'-{(1E)-[3-hydroxy-5-(hydroxymethyl)-2-methylpyridin-4-yl]methylene}benzohydrazide]
  EC50: 71.2 µM

## C=CCOc1cccc(C2C(C(=O)c3cc4ccccc4o3)C(=O)C(=O)N2c2cc(C)on2)c1 (configuration not stated) [3-(1-benzofuran-2-carbonyl)-4-hydroxy-1-(5-methyl-1,2-oxazol-3-yl)-2-(3-prop-2-enoxyphenyl)-2H-pyrrol-5-one]
  EC50: > 300 µM

## Cc1cc(N2C(=O)C(=O)C(C(=O)c3cc4ccccc4o3)C2c2ccc([N+](=O)[O-])cc2)no1 (configuration not stated) [3-(1-benzofuran-2-carbonyl)-4-hydroxy-1-(5-methyl-1,2-oxazol-3-yl)-2-(4-nitrophenyl)-2H-pyrrol-5-one]
  EC50: > 300 µM

## C=CCOc1cccc(C2C(C(=O)c3ccc(C)o3)C(=O)C(=O)N2c2nnc(C)s2)c1 (configuration not stated) [3-(5-methylfuran-2-yl)carbonyl-1-(5-methyl-1,3,4-thiadiazol-2-yl)-4-oxidanyl-2-(3-prop-2-enoxyphenyl)-2H-pyrrol-5-one]
  EC50: > 300 µM

## C=CCOc1cccc(C2C(C(=O)c3ccc(C)o3)C(=O)C(=O)N2c2nccs2)c1 (configuration not stated) [3-(5-methylfuran-2-yl)carbonyl-4-oxidanyl-2-(3-prop-2-enoxyphenyl)-1-(1,3-thiazol-2-yl)-2H-pyrrol-5-one]
  EC50: > 300 µM

## CCCOc1cccc(C2C(C(=O)c3ccco3)C(=O)C(=O)N2c2nnc(C)s2)c1 (configuration not stated) [3-(furan-2-carbonyl)-4-hydroxy-1-(5-methyl-1,3,4-thiadiazol-2-yl)-2-(3-propoxyphenyl)-2H-pyrrol-5-one]
  EC50: 51.9 µM

## C=CCOc1ccc(C2C(C(=O)c3ccco3)C(=O)C(=O)N2c2nnc(C)s2)cc1 (configuration not stated) [3-(furan-2-carbonyl)-4-hydroxy-1-(5-methyl-1,3,4-thiadiazol-2-yl)-2-(4-prop-2-enoxyphenyl)-2H-pyrrol-5-one]
  EC50: > 300 µM
